Assay results taken from US11434242B2, “Dopamine-b-hydroxylase inhibitors” (BIAL-PORTELA & Cª, S.A., priority 2017, dated 2022).
Marks after values point to notes of the source that are not given here.

Biological target: T1, Dopamine beta hydroxylase (Homo sapiens, UniProt P09172)
T1 construct: 125 μl of plasma; tissue Instituto Português do Sangue Transplantação; host or cells: human plasma from healthy donors
T1 sequence (P09172 40-617 limits assumed): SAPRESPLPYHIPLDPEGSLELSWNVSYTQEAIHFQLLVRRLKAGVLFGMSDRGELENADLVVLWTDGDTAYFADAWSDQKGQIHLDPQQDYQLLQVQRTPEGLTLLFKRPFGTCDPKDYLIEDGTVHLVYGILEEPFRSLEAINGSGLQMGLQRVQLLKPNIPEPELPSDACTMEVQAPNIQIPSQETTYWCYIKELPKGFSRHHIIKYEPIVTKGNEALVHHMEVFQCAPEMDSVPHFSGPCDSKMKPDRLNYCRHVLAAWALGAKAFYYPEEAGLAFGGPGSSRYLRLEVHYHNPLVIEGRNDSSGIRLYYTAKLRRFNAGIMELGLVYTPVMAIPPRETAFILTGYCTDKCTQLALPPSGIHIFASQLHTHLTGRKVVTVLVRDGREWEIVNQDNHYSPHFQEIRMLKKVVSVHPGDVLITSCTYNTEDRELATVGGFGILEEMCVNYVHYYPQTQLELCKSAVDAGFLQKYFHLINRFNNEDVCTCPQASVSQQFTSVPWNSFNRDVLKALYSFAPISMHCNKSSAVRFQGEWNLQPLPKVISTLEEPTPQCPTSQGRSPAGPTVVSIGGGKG
Test: Dopamine beta hydroxylase activity in human plasma
Format: biochemical
Conditions: for Plasma (0.01 μM), activity in % of control / Plasma (0.01 μM), activity in % of control, re-test (asterisked): inhibitor 0.01 μM; for Plasma (0.1 μM), activity in % of control / Plasma (0.1 μM), activity in % of control, re-test (asterisked): inhibitor 0.1 μM; for Plasma (0.01 μM), activity in % of control, re-test (asterisked) / Plasma (0.1 μM), activity in % of control, re-test (asterisked): re-tested under the same experimental conditions, asterisked data believed to be correct
Outline: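 Octopamine production from tyramine over 45 min at 37° C, measured photometrically at 330 nm after SCX extraction and periodate oxidation against an octopamine standard curve, indicates plasma DβH activity. Compounds tested at final 10, 100 and 1000 nM in human plasma, pH 5.0 cofactor buffer, 10 min preincubation; results as % of control.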

Compound	Plasma (0.01 μM), activity in % of control	Plasma (0.1 μM), activity in % of control	Plasma (0.01 μM), activity in % of control, re-test (asterisked)	Plasma (0.1 μM), activity in % of control, re-test (asterisked)
Cn1c(CC(=O)NCC#N)c2n(c1=S)C[C@@]1(c3cc(Cl)ccc3F)C[C@@H]21 [Example 304, 2-((5aS,6aR)-5a-(5-chloro-2-fluorophenyl)-2-methyl-3-thioxo-2,3,5,5a,6,6a-hexahydrocyclopropa[3,4]pyrrolo[1,2-c]imidazol-1-yl)-N-(cyanomethyl)acetamide]	51.9 % of control	21.1 % of control		
Cn1c(CC(=O)NCC#N)c2n(c1=S)C[C@@]1(c3cc(Br)ccc3F)C[C@@H]21 [Example 305, 2-((5aS,6aR)-5a-(5-bromo-2-fluorophenyl)-2-methyl-3-thioxo-2,3,5,5a,6,6a-hexahydrocyclopropa[3,4]pyrrolo[1,2-c]imidazol-1-yl)-N-(cyanomethyl)acetamide]	61.2 % of control	12.2 % of control		
Cn1c(CC(=O)N[C@H]2CCOC2)c2n(c1=S)C[C@@]1(c3cc(Cl)ccc3F)C[C@@H]21 [Example 306, 2-((5aS,6aR)-5a-(5-chloro-2-fluorophenyl)-2-methyl-3-thioxo-2,3,5,5a,6,6a-hexahydrocyclopropa[3,4]pyrrolo[1,2-c]imidazol-1-yl)-N—((S)-tetrahydrofuran-3-yl)acetamide]	70.6 % of control	18.0 % of control		
O=C(Cc1[nH]c(=S)n2c1[C@@H]1C[C@]1(c1cc(Br)ccc1F)C2)N[C@@H]1CCOC1 [Example 307, 2-((5aS,6aR)-5a-(5-bromo-2-fluorophenyl)-3-thioxo-2,3,5,5a,6,6a-hexahydrocyclopropa[3,4]pyrrolo[1,2-c]imidazol-1-yl)-N—((R)-tetrahydrofuran-3-yl)acetamide]	73.9 % of control	33.0 % of control		
Cn1c(CC(=O)N[C@H]2CCOC2)c2n(c1=S)C[C@@]1(c3cc(Br)ccc3F)C[C@@H]21 [Example 308, 2-((5aS,6aR)-5a-(5-bromo-2-fluorophenyl)-2-methyl-3-thioxo-2,3,5,5a,6,6a-hexahydrocyclopropa[3,4]pyrrolo[1,2-c]imidazol-1-yl)-N—((S)-tetrahydrofuran-3-yl)acetamide]	64.2 % of control	12.8 % of control		
Cn1c(CC(=O)N2CCCC2)c2n(c1=S)C[C@@]1(c3cc(Cl)ccc3F)C[C@@H]21 [Example 309, 2-((5aS,6aR)-5a-(5-chloro-2-fluorophenyl)-2-methyl-3-thioxo-2,3,5,5a,6,6a-hexahydrocyclopropa[3,4]pyrrolo[1,2-c]imidazol-1-yl)-1-(pyrrolidin-1-yl)ethan-1-one]	86.2 % of control	38.8 % of control		
Cn1c(CC(=O)N2CCCC2)c2n(c1=S)C[C@@]1(c3cc(Br)ccc3F)C[C@@H]21 [Example 310, 2-((5aS,6aR)-5a-(5-bromo-2-fluorophenyl)-2-methyl-3-thioxo-2,3,5,5a,6,6a-hexahydrocyclopropa[3,4]pyrrolo[1,2-c]imidazol-1-yl)-1-(pyrrolidin-1-yl)ethan-1-one]	65.9 % of control	22.3 % of control		
Cn1c(CC(=O)N2CCCCC2)c2n(c1=S)C[C@@]1(c3cc(Cl)ccc3F)C[C@@H]21 [Example 311, 2-((5aS,6aR)-5a-(5-chloro-2-fluorophenyl)-2-methyl-3-thioxo-2,3,5,5a,6,6a-hexahydrocyclopropa[3,4]pyrrolo[1,2-c]imidazol-1-yl)-1-(piperidin-1-yl)ethan-1-one]	87.2 % of control	21.6 % of control		
Cn1c(CC(=O)N2CCCCC2)c2n(c1=S)C[C@@]1(c3cc(Br)ccc3F)C[C@@H]21 [Example 312, 2-((5aS,6aR)-5a-(5-bromo-2-fluorophenyl)-2-methyl-3-thioxo-2,3,5,5a,6,6a-hexahydrocyclopropa[3,4]pyrrolo[1,2-c]imidazol-1-yl)-1-(piperidin-1-yl)ethan-1-one]	84.8 % of control	51.7 % of control	67.6* % of control	15.0* % of control
Cn1c(CC(=O)NC2CCOCC2)c2n(c1=S)C[C@@]1(c3cc(Cl)ccc3F)C[C@@H]21 [Example 313, 2-((5aS,6aR)-5a-(5-chloro-2-fluorophenyl)-2-methyl-3-thioxo-2,3,5,5a,6,6a-hexahydrocyclopropa[3,4]pyrrolo[1,2-c]imidazol-1-yl)-N-(tetrahydro-2H-pyran-4-yl)acetamide]	37.6 % of control	9.6 % of control		
Cn1c(CC(=O)NC2CCOCC2)c2n(c1=S)C[C@@]1(c3cc(Br)ccc3F)C[C@@H]21 [Example 314, 2-((5aS,6aR)-5a-(5-bromo-2-fluorophenyl)-2-methyl-3-thioxo-2,3,5,5a,6,6a-hexahydrocyclopropa[3,4]pyrrolo[1,2-c]imidazol-1-yl)-N-(tetrahydro-2H-pyran-4-yl)acetamide]	80.2 % of control	34.8 % of control	41.9* % of control	1.4* % of control
Cn1c(CC(=O)NCC(F)(F)F)c2n(c1=S)C[C@@H](c1c(F)c(F)cc(F)c1F)C2 [Example 315, (R)-2-(2-methyl-6-(2,3,5,6-tetrafluorophenyl)-3-thioxo-2,5,6,7-tetrahydro-3H-pyrrolo[1,2-c]imidazol-1-yl)-N-(2,2,2-trifluoroethyl)acetamide]	67.0 % of control	17.0 % of control	94.0* % of control	53.3* % of control
Cn1c(CC(=O)Nc2ncco2)c2n(c1=S)C[C@@H](c1c(F)c(F)cc(F)c1F)C2 [Example 316, (R)-2-(2-methyl-3-thioxo-6-(2,3,5,6-tetrafluorophenyl)-2,5,6,7-tetrahydro-3H-pyrrolo[1,2-c]imidazol-1-yl)-N-(oxazol-2-yl)acetamide]	43.4 % of control	4.5 % of control	73.1* % of control	16.6* % of control
Cn1c(CC(=O)Nc2ncco2)c2n(c1=S)C[C@H](c1c(F)ccc(Cl)c1F)C2 [Example 317, (S)-2-(6-(3-chloro-2,6-difluorophenyl)-2-methyl-3-thioxo-2,5,6,7-tetrahydro-3H-pyrrolo[1,2-c]imidazol-1-yl)-N-(oxazol-2-yl)acetamide]	45.6 % of control	5.3 % of control		
Cn1c(CCC(=O)N2CCOCC2)c2n(c1=S)C[C@@H](c1c(F)c(F)cc(F)c1F)C2 [Example 318, (R)-3-(2-methyl-3-thioxo-6-(2,3,5,6-tetrafluorophenyl)-2,5,6,7-tetrahydro-3H-pyrrolo[1,2-c]imidazol-1-yl)-1-morpholinopropan-1-one]	88.4 % of control	61.4 % of control		
Cn1c(CCC(=O)N2CC3C(C2)C3(C)C)c2n(c1=S)C[C@@H](c1c(F)c(F)cc(F)c1F)C2 (stereo partly drawn) [Example 319, 1-(6,6-dimethyl-3-azabicyclo[3.1.0]hexan-3-yl)-3-((R)-2-methyl-6-(2,3,5,6-tetrafluorophenyl)-3-thioxo-2,5,6,7-tetrahydro-3H-pyrrolo[1,2-c]imidazol-1-yl)propan-1-one]	67.9 % of control	16.5 % of control		
Cn1c(CC(=O)N2CCNCC2)c2n(c1=S)C[C@@]1(c3cc(Cl)ccc3F)C[C@@H]21 [Example 320, 2-((5aS,6aR)-5a-(5-chloro-2-fluorophenyl)-2-methyl-3-thioxo-2,3,5,5a,6,6a-hexahydrocyclopropa[3,4]pyrrolo[1,2-c]imidazol-1-yl)-1-(piperazin-1-yl)ethan-1-one]	90.3 % of control	31.1 % of control		
Cl.Cn1c(CC(=O)N2CCNCC2)c2n(c1=S)C[C@@]1(c3cc(Br)ccc3F)C[C@@H]21 [Example 321, 2-((5aS,6aR)-5a-(5-bromo-2-fluorophenyl)-2-methyl-3-thioxo-2,3,5,5a,6,6a-hexahydrocyclopropa[3,4]pyrrolo[1,2-c]imidazol-1-yl)-1-(piperazin-1-yl)ethan-1-one Hydrochloride]	89.7 % of control	13.3 % of control		
